In patent publication US7652000B2, “Boron-containing compounds and methods of use” (Anacor Pharmaceuticals, Inc., priority 2004, dated 2010):
In brackets after ≈: the same amount, converted by molar mass.

What was measured:
P. acnes ATCC 6919 = test: MIC determination (NCCLS broth microdilution), P. acnes; assay type: cell-based, Propionibacterium acnes; details: lowest concentration with >=80% inhibition, 24 h at 34° C.
Method: (§1) The compounds of this invention are evaluated for their antibacterial activity as per the guidelines and procedures prescribed by the National Committee for Clinical Laboratory Standards (NCCLS) (cf., NCCLS Document M7-A3, 1993-Antimicrobial Susceptibility Testing). 5.1.1 Protocol for Determining Minimum Inhibitory Concentration (MIC) A useful protocol for MIC determination is as follows: • 1. Approximately 2.5 mg of the compounds to be tested was weighed into cryovials. • 2. 5 mg/ml stock solutions were made by adding DMSO to the samples accordingly. • 3. 256 μg/ml working solutions were made by using the 5 mg/ml stock solutions and adding sterile distilled water accordingly. • 4. A Beckman 2000 Automated Workstation was programmed to load 96-well plates with broth and compounds as follows: • 100 μl of the appropriate broth was added to columns 1-11. • 200 μl of the appropriate broth was added to column 12. • 100 μl of compounds at the 256 μg/ml working solution were added to column 1 (one compound per row). • Two-fold serial dilutions were done from columns 1-10. • Column 11 served as the growth control. • 5. The ten-organism panel was plated from stock vials stored at −80° C. and incubated for 24 hours at 34° C. The organisms were then sub-cultured and incubated for 24 hours at 34° C. • The inoculums were first prepared in sterile distilled water with a target of 0.09-0.11 absorbance at 620 nm wavelength. • A 1/100 dilution was made into the appropriate broth. • 100 μl of broth with organism was added to columns 1-11. • Column 12 served as the blank control. • 6. The completed 96 well plates were incubated for 24 hours at 34° C. The 96-well plates were then read using a Beckman Automated Plate Reader at 650 nm wavelength. The MIC was determined through calculations involving the growth control (column 11) and blank control (column 12). 5.1.2 MIC Calculation The absorbance readings from the Biomek Automated Plate Reader are used to determine the percent inhibition for each test well. The formula used is as follows: [formula] • ABSTest: Absorbance of the test well. • ABSblank: Absorbance of the blank well in the same row as the test well (column 12). • ABSgrowth: Mean absorbance of the growth control wells (column 11). […] These procedures were used to obtain the representative microbiological data for the compounds 10 to 19 shown in Table 1 as MIC (Minimum Inhibitory Concentration) with the values expressed as micrograms per milliliter (mcg/ml).

[1] = system: S. epidermidis ATCC 12228; test: MIC determination (NCCLS broth microdilution), S. epidermidis; assay type: cell-based; details: lowest concentration with >=80% inhibition, 24 h at 34° C.
Method: as §1

S. aureus ATCC 29213 = test: MIC determination (NCCLS broth microdilution), S. aureus; assay type: cell-based; details: lowest concentration with >=80% inhibition, 24 h at 34° C.
Method: as §1

TNF-α = test: Inhibition of TNF-α secretion from human PBMC stimulated with LPS; assay type: cell-based; details: 1 μg/ml LPS, 24 h; for IC50: read-out: IC50 TNF-α release
Method: (§2) 5.2 Inhibition of IL-β, IL-6, or TNF-α Secretion from Human Peripheral Blood […] (PBMC) Stimulated with LPS PBMC (5×10^5 cells) suspended in RPMI 1640 culture medium supplemented with 1% penicillin and 1% streptomycin are pre-incubated for 30 min. at 37° C. with the test compound, reference compound, or culture medium (control). Thereafter, 1 μg/ml LPS is added to induce the cytokine secretion and the mixture is incubated for 24 h at 37° C. For basal control measurements, LPS is omitted from the incubation medium. Following incubation, the samples are centrifuged at 250×g for 5 min. at 4° C. and the supernatants are collected. The amount of secreted IL-1β, 1L-6, or TNF-α present in the supernatant is quantified using an EIA detection kit (R&D systems). The photometric measurements are made with a microplate reader (Ultra, Tecan). The results are expressed as a percent inhibition of the control secretion induced by LPS. The standard inhibitory reference compounds for IL-1β, IL-6 or TNF-α are cycloheximide and dexamethasone, respectively, which are tested in each experiment at several concentrations to obtain an inhibition curve from which their IC50 values are calculated (Schindler, R., et al., (1990). “Correlations and interactions in the production of interleukin-6 (IL-6), IL-1, and tumor necrosis factor (TNF) in human blood mononuclear cells: IL-6 suppresses IL-1 and TNF”, Blood, 75:40. These procedures were used to determine the inhibition (and selectivity) of cytokine release by representative compounds […] shown in Table 2. Thus, the invention provides antibiotics that are generically called borinic acid complexes, most preferably derived from disubstituted borinic acids.

IL-1β = test: Inhibition of IL-1β secretion from human PBMC stimulated with LPS; assay type: cell-based; details: 1 μg/ml LPS, 24 h; for IC50: read-out: IC50 IL-1β release
Method: as §2

IL-6 = test: Inhibition of IL-6 secretion from human PBMC stimulated with LPS; assay type: cell-based; details: 1 μg/ml LPS, 24 h; for IC50: read-out: IC50 IL-6 release
Method: as §2

IL-8 = test: Inhibition of IL-8 pro-inflammatory cytokine release; assay type: cell-based
Source text: The selective inhibition of the release of pro-inflammatory cytokines is shown in Table 2 with representative compounds 10, 11, and 30-35.

| MIC P. acnes ATCC 6919 (P. acnes ATCC 6919) [µg/mL] | MIC S. epidermidis ATCC 12228 [1] [µg/mL] | MIC S. aureus ATCC 29213 (S. aureus ATCC 29213) [µg/mL] | SMILES | Inhibition (%) at 25 μM TNF-α release (TNF-α) | Inhibition (%) at 25 μM IL-1β release (IL-1β) | further results |
| --- | --- | --- | --- | --- | --- | --- |
| 3 (≈ 7.9 µM) | 1 (≈ 2.63 µM) | 0.5 (≈ 1.32 µM) | Cc1ccc(B(CCc2ccccc2)OC(=O)c2ncccc2O)cc1Cl [Compound 12, (3-chloro-4-methylphenyl)(phenethyl)borinic acid 3-Hydroxypicolinate ester] |  |  |  |
|  |  |  | Cc1ccc(B(OC(=O)c2ncccc2O)c2ccc(O)cc2)cc1Cl [Compound 33, (3-chloro-4-methylphenyl)(4-hydroxyphenyl)borinic acid 3-hydroxypicolinate ester] | 48% | 60% |  |
| 3 (≈ 7.01 µM) | 4 (≈ 9.34 µM) | 0.125 (≈ 0.292 µM) | Cc1ccc(B(OC(=O)c2ncccc2C(=O)O)c2ccc(C)cc2Cl)c(Cl)c1 [Compound 14, Bis(2-Chloro-4-methylphenyl)borinic acid 3-carboxypicolinate ester] |  |  |  |
| 3 (≈ 7.46 µM) | 4 (≈ 9.95 µM) | 4 (≈ 9.95 µM) | COc1ccc(Cl)cc1B(OC(=O)c1ncccc1O)c1cccc(Cl)c1 [Compound 15, (2-Methoxy-5-chlorophenyl)(3-chlorophenyl)borinic acid 3-Hydroxypicolinate ester] |  |  |  |
|  |  |  | O=C(OB(c1ccc(Cl)cc1F)c1c(Cl)ccc(Br)c1F)c1ncccc1O [Compound 34, (3-Bromo-6-chloro-2-fluorophenyl)(4-chloro-2-fluorophenyl)borinic acid 3-hydroxypicolinate ester] | 101% | 100% | Inhibition (%) at 25 μM IL-6 release (IL-6): 108% |
|  |  |  | CCOC(=O)c1cccnc1C(=O)OB(c1ccc(C)c(Cl)c1)c1ccc(C)c(Cl)c1 [Compound 30, Bis(3-chloro-4-methylphenyl)borinic Acid 3-(Ethyloxycarbonyl)picolinate Ester] | 101% | 76% |  |
| 0.3 (≈ 0.75 µM) | 0.25 (≈ 0.625 µM) | 1 (≈ 2.5 µM) | Cc1cc(Cl)ccc1B(OC(=O)c1ncccc1O)c1ccc(Cl)cc1C [Compound 11, Bis(2-methyl-4-chlorophenyl)borinic acid 3-Hydroxypicolinate ester] | (101%) | (103%) | IC50 (TNF-α): 14.9 µM; IC50 (IL-1β): 15 µM; IC50 (IL-6): 2.8 µM; Inhibition (%) at 25 μM IL-6 release (IL-6): (102%); Inhibition (%) at 25 μM IL-8 release (IL-8): (122%) |
| 3 (≈ 6.16 µM) | 1 (≈ 2.05 µM) | 2 (≈ 4.11 µM) | O=C(OB(c1ccc(Cl)cc1F)c1c(Cl)ccc(Br)c1F)c1ncccc1O [Compound 13, (3-Bromo-6-chloro-2-fluorophenyl)(2-fluoro-4-chlorophenyl)borinic acid 3-Hydroxypicolinate ester] |  |  |  |
| 10 (≈ 23.3 µM) | 8 (≈ 18.6 µM) | 0.5 (≈ 1.17 µM) | CC(=O)Nc1ccc(O)c(C(=O)OB(c2cccc(Cl)c2)c2cccc(Cl)c2)n1 [Compound 16, Bis(3-chlorophenyl)borinic acid 6-Acetylamino-3-hydroxypicolinate ester] |  |  |  |
| 0.3 (≈ 0.75 µM) | 1 (≈ 2.5 µM) | 2 (≈ 5 µM) | Cc1ccc(B(OC(=O)c2ncccc2O)c2ccc(C)c(Cl)c2)cc1Cl [Compound 10, Bis(3-chloro-4-methylphenyl)borinic acid 3-hydroxypicolinate ester] | (100%) | (99%) | IC50 (TNF-α): 8.6 µM; IC50 (IL-1β): 10.8 µM; IC50 (IL-6): 3.6 µM; Inhibition (%) at 25 μM IL-6 release (IL-6): (80%); Inhibition (%) at 25 μM IL-8 release (IL-8): (122%) |
|  |  |  | Cc1ccc(B(OC(=O)c2ncccc2OCCN2CCOCC2)c2ccc(C)c(Cl)c2)cc1Cl [Compound 32, Bis(3-chloro-4-methylphenyl)borinic acid 3-[(2-Morpholinoethyl)oxy]picolinate ester] | 101% | 34% |  |
|  |  |  | CC[C@H]1OC(=O)[C@H](C)[C@@H](O[C@H]2C[C@@](C)(OC)[C@@H](O)[C@H](C)O2)[C@H](C)[C@@H](O[C@@H]2O[C@H](C)C[C@H](N(C)C)[C@H]2O)[C@](C)(O)C[C@@H](C)C(=O)[C@H](C)[C@@H](O)[C@]1(C)O [erythromycin, reference compound] |  |  | MIC (P. acnes ATCC 6919; Cutibacterium acnes, ATCC6919): 1 to 2 µg/mL (≈ 1.36 to 2.73 µM); MIC ([1]; Staphylococcus epidermidis, ATCC12228): 0.5 µg/mL (≈ 0.681 µM); MIC (S. aureus ATCC 29213; Staphylococcus aureus, ATCC29213): 0.5 µg/mL (≈ 0.681 µM) |
|  |  |  | Cc1ccc(B(OC(=O)c2ccc(C(=O)O)cn2)c2ccc(C)c(Cl)c2)cc1Cl [Compound 31, Bis(3-chloro-4-methylphenyl)borinic acid 5-Carboxypicolinate ester] | 101% | 80% |  |
